# Key:
# [1] = crystal stability in aqueous solutions (brightfield microscopy); type: physicochemical; details: 1-2 mg crystal, 300 μL saline, RPMI-1640 media, 1X PBS or saline with 0.1% SDS; solutions replaced every hour; after 36 hours
# From the text: After crystals visibly stopped precipitating or growing, the vessel was submerged in an ultrasonic water bath for 10-30 seconds to dislodge crystals from the vessel sidewall and break them into more a uniform size distributions, either smaller fines, for example 50 μm, or between 150-200 μm, as measured by brightfield and scanning electron microscopy, shown in FIGS. 2A-2B. Resultant product was then removed from the supernatant mother solution, dried, weighed, and stored for later use. On average, yielded crystal was approximately 40% of the starting powder. Furthermore, methods exist to quantify solubilized material, typically using optics to identify changes in light transmittance, and enabled testing of crystal stability in a range of aqueous solutions. To do so, between 1-2 mg of crystal was placed in a 96-well plate with 300 μL of DMSO, saline, RPMI-1640 media, 1X phosphate buffer solution (PBS), or saline with 0.1% sodium dodecyl sulfate (SDS). […] To simulate cumulative drug release over time, all 3 mL supernatant volumes were removed and replaced with completely fresh release media at desired times of 1 hr, 4 hr, 6 hr, 8 hr, 10 hr, 1 day, 2 days, 5 days, 7 days, 10 days and 12 days, and 200 μL aliquots were measured in individual wells of a 96-well plate at 266 nm to determine solubilize sorafenib release, as shown in FIG. 2D.
# VE-Cdh, aSMact, Cd34 = test: qPCR of retrieved tumors: VE-Cdh, aSMact, Cd34; type: in vivo, BALB/c mice; details: crystals, compared to daily bolus; tumors at end of study
# Procedure: To determine the anti-angiogenic efficacy of each sorafenib treatment group, qPCR gene expression analysis was performed on retrieved tumors at the conclusion of the study. In particular, analysis for levels of endothelial cell marker Cd31, vascular endothelial-cadherin (VE-Cdh), smooth muscle pericyte marker alpha Smooth Muscle actin (aSMact), and stem/progenitor cell marker Cd34 were conducted, as shown in FIG. 3F.
# 1 mL of TRIzol reagent (Cat#15596018, ThermoFisher) was added to 100 mg samples of tumor tissue and broken down with a power homogenizer (Polytron/VWR). Homogenized samples were incubated at room temperature for 5 min for complete nucleoprotein dissociation, then 0.2 ml of chloroform (Sigma) was added to each sample. Samples were shaken vigorously for 15 seconds and incubated at room temperature for 3 min before centrifuging at 12,000 g for 15 min at 4° C. The uppermost supernatant layer was pipetted into a 1.7 mL Eppendorf tube, with the remaining interphase and organic layer discarded. 0.5 mL of isopropanol (Sigma) was added to each sample, and then samples were incubated for 10 min. Samples were centrifuged at 12,000 g for 10 min at 4° C. […] Depending on size of resultant pellet, pellets were resuspended in 50-100 μL, and nucleic acid concentration was measured using a NanoDrop 2000 spectrophotometer (ThermoFisher). […]
# [2] = test system: alpha Smooth Muscle actin (aSMact); test: immunofluorescent staining of tumors: aSMact; type: in vivo, BALB/c mice; details: single SC injection of 3 mg or 10 mg crystals, compared to daily bolus
# Procedure: To confirm the effects seen at the level of RNA, immunofluorescent staining of excised tumor samples that were in parallel fixed with paraformaldehyde and embedded in paraffin was performed. […] Co-localization of CD31 with aSMact was, as expected, not linked in crystal sorafenib-treated tumors, where CD31 reduction was more extensive than with daily, bolus sorafenib.
# Immunofluorescence imaging was used to determine anti-angiogenic drug efficacy. Tumor tissues were retrieved from mice and fixed overnight using 4% paraformaldehyde at 4° C. After fixation, retrieved tissue samples were moved to 70% ethanol. Samples were then processed for paraffin embedding, sectioning and staining. […] Next, tissues were incubated for 1 hour in an immunostaining cocktail solution consisting of NucBlue (Thermo), specific marker probes (1:200 dilution) anti-CD31 (Cat#DIA-310, HistoBioTec) and anti-alphaSmoothMuscle actin-Cy3 (Sigma) in Dako staining buffer. For CD31, a goat anti-rat alexa-fluor647 secondary antibody was also used (1:400). After staining, samples were rinsed again with 1X PBS three times prior to slides being cover slipped with Pro-long anti-fade Gold (Thermo). […] For stain quantification, images were converted into 8-bit image files, a background threshold was determined using NIH ImageJ, and then all images were processed using an NIH ImageJ macro to quantify the area of positive stain. […]
smiles,measurement,setting,value
"CNC(=O)c1cc(Oc2ccc(NC(=O)Nc3ccc(Cl)c(C(F)(F)F)c3)cc2)ccn1 [crystalline sorafenib, sorafenib]",difference in crystal size by brightfield microscopy,[1],no noticeable difference
same,"knockdown of VE-Cdh, aSMact and Cd34 (qPCR)","VE-Cdh, aSMact, Cd34",not as significant
same,tumor aSMact levels (immunofluorescence),[2],reduction is less significant

# — US20240366577A1, “CONTROLLED LONG-TERM DRUG DELIVERY AND METHODS THEREOF” (THE JOHNS HOPKINS UNIVERSITY, priority 2021, published 2024)
